Measurements reported in publication PMC10439952, “JT002, a small molecule inhibitor of the NLRP3 inflammasome for the treatment of autoinflammatory disorders” (Scientific Reports, 2023).

Legend:
Type in all cases: cell-based
[1] = system: autocatalytic cleavage of pro-caspase-1 (p45) into the p10 subunit; assay: Western blot for caspase-1 p10 in LPS + nigericin stimulated mouse BMDM lysates and supernatants; conditions: LPS + nigericin treated mBMDMs, compound 10 µM
Protocol: BMDMs were activated with LPS and nigericin as described above and were lysed in situ with 50 μL of 4× NuPAGE LDS sample buffer (Fisher Scientific, Hampton, NH) + 5% β-mercaptoethanol and prepared for polyacrylamide gel electrophoresis. Samples were run on NuPAGE Bis–Tris gels (Fisher Scientific, Hampton, NH) and transferred to polyvinylidene difluoride (PVDF) membranes (Fisher Scientific, Hampton, NH) using the iBlot® 2 Dry Blotting System (Fisher Scientific, Hampton, NH). Washed PVDF membranes were blocked and then probed with the following primary antibodies: procaspase-1 + p10 + p12 [EPR16883] (Abcam, Cambridge, MA), β-actin (AC-74, Sigma-Aldrich, St. Louis, MO) and NLRP3 [Cryo-2] (AdipoGen Life Sciences, San Diego, CA). Bound primary antibodies were detected using HRP-labeled secondary antibodies and membranes were imaged with an Azure c300 imager (Azure Biosystems, Dublin, CA). Bands were quantitated using ImageJ software.

[2] = system: intracellular caspase-1 activity; assay: Intracellular caspase-1 activity in human PBMCs stimulated with LPS + nigericin (Caspase-Glo); conditions: Human PBMC, read-out: Geo Av IC50, Caspase-1
Protocol: (§1) Cell viability was determined by addition of an equal volume of CellTiter-Glo® 2.0 reagent (Promega) to the remaining cells/supernatant in each well. Intracellular Caspase-1 activity was measured using the Caspase-Glo® assay (Promega) according to the manufacturer’s instructions. The biochemical capsase-1 assay was conducted at Reaction Biology Corporation (Malvern, USA). Human IL-1β, IL-1α, and TNFα and mouse IL-1β were measured in cell culture supernatants using homogeneous time resolved fluorescence assay kits (HTRF, Cisbio, Codolet, France). Human IL-18 was measured in cell culture supernatants using an ELISA kit (R&D Systems, Minneapolis, MN, USA). Plasma IL-1β concentrations were determined by Quantikine® ELISA (R&D Systems, Minneapolis, MN).
4H). MS: m/z 433.1 (M+H+).
Inflammasome activation.PBMCs (iXCells Biotechnologies, San Diego, USA) were thawed the day before the assay and seeded in complete medium (RPMI 1640 medium with GlutaMAX, supplemented with an additional 2.5 g/L D-glucose, 10% Fet al Bovine Serum, 100 mM Sodium Pyruvate, 1% Penicillin/Streptomycin, 10 mM HEPES and 0.05 mM β -mercaptoethanol) in polystyrene V-bottom 96-well plates at 5x10^4 cells per well and incubated overnight at 37°C with 5% CO 2. The next day, PBMC media was r eplaced with serum-fr ee media p rior t o the assay. […]

NLRC4 inflammasome = target: T1, NLRC4 inflammasome (Mus musculus, UniProt Q3UP24); assay: IL-1β production in mouse BMDMs after NLRC4 activation (LPS + flagellin); conditions: mBMDMs, concentrations up to 10 µM
T1 construct: host or cells: mouse BMDMs, LPS + transfected flagellin
Protocol: as §1
(§2) 4H). MS: m/z 433.1 (M+H+). […]
flagellin, prepared in Opt iMEM and combined with Lipofectamine 2000. […] After priming Nlrp3 -/- mBMDMs with 100 ng/mL of LPS for 3- 5 h, cells were exposed to 100 ng/mL L18- MDP and incubated overnight.At the end of the incubation period of the assays above, plates were briefly centri fuged and hal f of the cell culture supern atant remo ved and either analysed i mmediately or stored at - 80°C for subs equent cytokine […]

NLRP3 inflammasome = NLRP3 inflammasome (Mus musculus, UniProt Q8R4B8); assay: Inhibition of IL-1β production in mouse BMDMs stimulated by LPS + ATP; set-up: host or cells: mouse PBMCs; mouse bone-marrow derived macrophages; mouse whole blood (C57BL/6 in the ex vivo study); conditions: Mouse BMDM, read-out: Geo Av IC50, IL-1β
Protocol: Inflammasome activation and whole blood assays were essentially carried out as described earlier. Details can be found in the supplementary information section accompanying this publication. A protocol for blood draws from healthy volunteers and use of the blood in preclinical assays was approved by Western Institutional Review Board, Inc (Puyallup, WA, USA). Informed consent was obtained from each donor prior to the first blood draw.
as §1, §2

T1 sequence (Q3UP24 whole entry): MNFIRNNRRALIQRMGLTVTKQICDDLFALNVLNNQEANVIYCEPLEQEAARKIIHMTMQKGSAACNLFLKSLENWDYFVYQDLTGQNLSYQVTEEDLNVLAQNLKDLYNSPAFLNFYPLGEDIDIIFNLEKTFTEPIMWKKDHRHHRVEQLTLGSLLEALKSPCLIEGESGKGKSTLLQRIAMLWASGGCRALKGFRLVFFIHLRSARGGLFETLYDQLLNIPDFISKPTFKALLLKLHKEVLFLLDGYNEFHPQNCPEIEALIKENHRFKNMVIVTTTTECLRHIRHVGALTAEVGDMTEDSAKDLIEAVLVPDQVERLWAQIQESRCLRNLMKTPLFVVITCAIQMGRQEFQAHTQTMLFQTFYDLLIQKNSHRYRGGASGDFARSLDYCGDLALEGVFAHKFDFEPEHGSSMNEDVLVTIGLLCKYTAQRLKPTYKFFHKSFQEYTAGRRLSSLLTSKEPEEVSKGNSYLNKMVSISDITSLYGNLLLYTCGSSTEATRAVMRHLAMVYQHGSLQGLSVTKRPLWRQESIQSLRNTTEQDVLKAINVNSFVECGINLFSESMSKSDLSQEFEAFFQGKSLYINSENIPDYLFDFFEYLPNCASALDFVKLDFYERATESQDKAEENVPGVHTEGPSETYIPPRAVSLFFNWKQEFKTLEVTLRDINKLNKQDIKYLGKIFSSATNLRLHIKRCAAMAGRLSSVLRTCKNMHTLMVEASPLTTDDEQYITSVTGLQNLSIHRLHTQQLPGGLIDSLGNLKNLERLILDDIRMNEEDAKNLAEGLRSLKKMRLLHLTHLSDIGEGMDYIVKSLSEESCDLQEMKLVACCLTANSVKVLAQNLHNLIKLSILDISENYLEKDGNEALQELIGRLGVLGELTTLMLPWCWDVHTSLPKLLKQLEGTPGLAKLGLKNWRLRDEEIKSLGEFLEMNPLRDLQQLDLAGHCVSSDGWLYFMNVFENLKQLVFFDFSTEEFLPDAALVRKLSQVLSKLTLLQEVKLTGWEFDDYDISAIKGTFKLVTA
Sequence of NLRP3 inflammasome (Q8R4B8 whole entry): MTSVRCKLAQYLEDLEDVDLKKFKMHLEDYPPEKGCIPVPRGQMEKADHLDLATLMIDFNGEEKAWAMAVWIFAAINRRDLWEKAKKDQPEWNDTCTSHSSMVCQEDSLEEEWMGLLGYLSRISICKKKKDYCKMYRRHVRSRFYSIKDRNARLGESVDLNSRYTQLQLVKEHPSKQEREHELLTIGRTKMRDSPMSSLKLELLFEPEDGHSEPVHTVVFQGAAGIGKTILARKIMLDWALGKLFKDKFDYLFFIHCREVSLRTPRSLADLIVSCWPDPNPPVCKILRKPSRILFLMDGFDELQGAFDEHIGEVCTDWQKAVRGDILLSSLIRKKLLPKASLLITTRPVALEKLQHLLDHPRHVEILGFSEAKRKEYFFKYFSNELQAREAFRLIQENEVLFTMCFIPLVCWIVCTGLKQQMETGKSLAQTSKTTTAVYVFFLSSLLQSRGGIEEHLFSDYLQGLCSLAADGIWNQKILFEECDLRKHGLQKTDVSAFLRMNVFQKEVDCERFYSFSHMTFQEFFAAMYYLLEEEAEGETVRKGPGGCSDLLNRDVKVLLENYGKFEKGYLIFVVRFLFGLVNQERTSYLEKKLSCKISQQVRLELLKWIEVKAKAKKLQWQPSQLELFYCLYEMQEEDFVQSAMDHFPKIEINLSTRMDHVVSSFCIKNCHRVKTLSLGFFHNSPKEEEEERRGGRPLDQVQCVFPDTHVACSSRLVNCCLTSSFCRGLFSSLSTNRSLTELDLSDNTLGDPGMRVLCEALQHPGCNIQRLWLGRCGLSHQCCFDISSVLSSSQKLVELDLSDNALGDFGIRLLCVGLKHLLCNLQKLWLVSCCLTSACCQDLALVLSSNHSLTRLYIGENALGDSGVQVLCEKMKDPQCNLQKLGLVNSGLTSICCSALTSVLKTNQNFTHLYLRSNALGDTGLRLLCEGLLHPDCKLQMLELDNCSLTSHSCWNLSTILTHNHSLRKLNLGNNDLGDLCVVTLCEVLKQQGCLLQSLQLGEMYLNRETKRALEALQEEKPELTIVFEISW

- IC50 [2]: 8 nM
- inhibition of IL-1β production after NLRC4 activation (NLRC4 inflammasome): no inhibition of IL-1β production
- IC50 (NLRP3 inflammasome): 5 nM
SMILES: CO[C@@H]1COc2c(S(=O)(=O)NC(=O)Nc3c4c(cc5c3CCC5)CCC4)cnn2C1 [JT002]
- formation of the caspase-1 p10 subunit (autocatalytic cleavage of pro-caspase-1) [1]: blocked formation of the p10 subunit and its release from the cell
